Experimental data from patent US20030003485A1, “Methods for identifying antigens” (Ludwig Institute for Cancer Research, priority 2001, published 2003).
Ends that are not written are not given here.

What was measured:
Type in all cases: cell-based, mouse
[1] = test system: CTL clone B-24; assay: Cytotoxicity assay (51Cr release) with CTL clone B-24; conditions: peptide pulsed P1.HTR target cells
Description: Cytotoxicity assay. Tumor cells were labeled by incubating 2×10^6 cells with 2 MBq of Na2^51CrO4, (New England Nuclear, Boston, Mass.) in 0.3 ml of medium for 90 min at 37° C. under 5% CO2 in air. The cells were washed and used as targets. […] In antibody blocking assays, serially diluted mAb (100 μl) was added to the mixture of effector cells and 10^4 labeled target cells (100 μl). After incubation for 3.5 hr at 37° C. under 5% CO2 in air, the supernatants were removed and their radioactivity was measured. The percentage of specific lysis was calculated by the following equation: (a-b)/(c-b)×100, where a is the radioactivity in the supernatant of target cells mixed with effector cells, b is the radioactivity in the supernatant of target cells incubated alone, and c is the radioactivity in the supernatant after lysis of target cells with 1% NP-40.

[2] = test system: CTL clone B-24; assay: IFNγ ELISPOT assay with CTL clone B-24, peptide-pulsed stimulator cells and antibody blocking; conditions: 5,000 B-24 cells, 10,000 CMS8 stimulator cells pulsed with peptide, 96-well plates
Description: ELISPOT assay. […] CTL were incubated with stimulator cells on the coated membrane in 96- or 24-well plates for 18 hr at 37° C. under 5% CO2 in air. After culture, the membranes were thoroughly washed with distilled water and incubated with detection antibody for 90 min at 37° C. The IFNγ spots were developed by alkaline phosphatase-conjugated substrate kit (Bio-Rad, Hercules, Calif.) and counted with a dissecting microscope.

[3] = test system: AT-1 CTL; assay: Cytotoxicity assay (4 hr 51Cr release) with AT-1 CTL
Description: In FIG. 10A, CMS8 cells were ^51Cr labeled and pulsed with the peptide at different concentrations. Cytotoxicity was determined by 4 hr ^51Cr release assay. Effector to target cell ratio was 10. In FIG. 10B, 1×10^4 AT-1 CTL was stimulated with 1×10^4 CMS8 cells in the presence of the 1.0 μM peptide. IFNγ in the supernatant was measured by ELISA.
Cytotoxicity assay. Tumor cells were labeled by incubating 2×10^6 cells with 2 MBq of Na2^51CrO4 (New England Nuclear, Boston, Mass.) in 0.3 ml of medium for 90 min at 37° C. under a 5% CO2 in air. The cells were washed and used as targets. For peptide sensitization, labeled target cells were incubated with peptides at 37° C. for 30 min […]. In direct assays, 10^4 labeled target cells (100 μl) were incubated with effector cells (100 μl) cells. In antibody blocking assays, serially diluted mAb (100 μl) was added to the mixture of effector cells and 10^4 labeled target cells (100 μl). After incubation for 4 hr at 37° C. under a 5% CO2 in air, the supernatants were removed and their radioactivity was measured. The percentage of specific lysis was calculated by the following equation: (a−b)×100/(c−b), where a is the radioactivity in the supernatant of target cells mixed with effector cells, b is that in the supernatant of target cells incubated alone, and c is that in the supernatant after lysis of target cells with 1% NP-40.

[4] = test system: AT-1 CTL; assay: IFNγ ELISA of AT-1 CTL stimulated with transfected or peptide-pulsed CMS8 cells; conditions: 1.0 μM synthetic peptide, 24 hr
Description: FIG. 8 depicts deletion mutants and introduction of point mutations in S35. IFNγ production in the supernatant secreted by AT-1 CTL against various constructs was determined by ELISA after culture for 24 hr with transfected CMS8 cells. PCR fragments with deletion were amplified from S35 cDNA and cloned into pCI-neo vector with EcoR I and Sal I sites. Point mutations at nt 699 (A to C) and nt 701 (G to A) in Exp. III were introduced using site-directed mutagenesis kits.
9-mer overlapping peptides were synthesized in the ORF of the third reading frame (“3RF”) of S35. 1×10^4 AT-1 cells were cultured with 1×10^4 CMS8 cells in the presence of 1.0 μM synthetic peptides for 24 hr and IFNγ in the supernatant was measured by ELISA. H-2D^d peptide motifs are shown as XGPXXXXXL (SEQ ID NO: 26) and XGAXXXXXL (SEQ ID NO:27). The synthetic peptides are MERTPIQLGAEAIFRLVLM (SEQ ID NO:15); MERTPIQLG (SEQ ID NO:16); ERTPIQLGA (SEQ ID NO:17); RTPIQLGAE (SEQ ID NO:18); TPIQLGAEA (SEQ ID NO:19); PIQLGAEAI (SEQ ID NO:20); IQLGAEAIF (SEQ ID NO:21); QLGAEAIFR (SEQ ID NO:22); LGAEAIFRL (SEQ ID NO:10); GAEAIFRLV (SEQ ID NO: 23); AEAIFRLVL (SEQ ID NO:24); and EAIFRLVLM (SEQ ID NO:25).
IFNγ ELISA. CTL were stimulated with targets for 18 hr. and IFNγ in the culture supernatant was assayed by the sandwich ELISA. […]

[5] = test system: AT-1 CTL; assay: IFNγ ELISPOT assay with AT-1 CTL
From the text: Transfection. Recombinant plasmids were purified by Wizard Plus Series 9600™ DNA purification system (Promega, Co., Madison, Wis.) after amplification of bacteria and transfected into 1×10^5 or 1×10^4 cells 24- or 96-well plates, respectively, with plasmid pdl3027 containing the polyoma T antigen (Dailey and Basilico, J. Virol. 54:739-749, 1985) using lipofectamine (GIBCO BRL, Rockville, Md.). After culture for 24 hr, the transfected cells were collected and plated onto anti-IFNγ mAb-coated nitrocellulose membranes in culture plates. AT-1 CTL were then added for ELISPOT assay.
ELISPOT assay. Nitrocellulose disk membranes (14 mm diameter) and 96-well nitrocellulose membrane-based plates (Millipore S4510, Millipore Corp., Bedford, Mass.) were coated with anti-IFNγ mAb (R4-6A2) in 0.05 M bicarbonate buffer (pH 9.6) at 4° C. overnight. After washing, membranes were blocked with RPMI 1640 containing 10% FCS and 50 μM 2-mercaptoethanol for 60 min at 37° C. CTL were incubated with stimulator cells on the coated membrane in 24- or -96well plates for 18 hr at 37° C. under a 5% CO2 in air. […] The IFNγ spots were developed by alkaline phosphatase-conjugated anti-rabbit IgG antibody and substrate kit (Bio-Rad, Hercules, Calif.) and counted with a dissecting microscope.

IPGLPLSL [pRL1a, IPGLPLSL] was tested, and the “cytotoxicity of B-24 against peptide pulsed P1.HTR” value [1] was “showed cytotoxicity”.

For “ISTQNHRALDLVA (listed as Mus musculus) [T2H]”, the “number of IFNγ spots” value [2] was “no spot”.

With LGAEAIFRL (listed as Mus musculus) the “inhibition of Meth A (sv) lysis by AT-1 CTL by peptide pulsed P815” value [3] was “completely inhibited”, the “peptide concentration at which AT-1 CTL lysis of peptide pulsed CMS8 was detected” value ([3]; 4 hr 51Cr release, effector to target cell ratio 10) was 20 to 30 nM and the “stimulation of AT-1 for IFNγ production by peptide pulsed CMS8 cells” value [4] was “stimulation was observed”.

LSPFPFDL [p2Ca] was tested, and the “number of IFNγ spots” value [2] was “no spot”.

B1: S35: cDNA clone, 937 bp long, from Meth A (sv) cDNA library, coding for antigen recognized by AT-1 (nucleic acid, listed as Mus musculus)
DNA: TTAAAAGGGAGATGGAAAGGACTCCAATCCAATTAGGGGCAGAAGCTATCTTTAGACTAGTACTAATGTGGTGAGTATCCTGCCTCACTTAACATCCTTAACCTAGCCTGTGCTTCAGGGAAAGGAAACAAAAGATAGATATATAAAGGCTATTTACTCTGCAAGCCAAACCAAAATTTTGGTACAGAAAATGACAAAGTTTCTTTTTCTCAATAGTAGGAATGTTCTGTGTTCCTAGCCAAAAATTTGTCATCAGTGTCCCTGTGGCTCCCATCTGTCTTTCCTGACCCCCATGATTACTTTTCACTGACAATATAAATCTTAAAAAGCTTTGAGACCAGTGTGCTGATCTAGTTTTTTAAGTTTTGGGTTTTGTTGTTGTGTTTTGGTTTTGGTGTTTTTACGTTTTATTGACTTACAAGCTTTCACTATGTATCCCAGACTGGCTTTGAACTCAGGACCTTCCTGCCTTAGTCTCCCAGGTGCTGAGATTGTGGGGCTGTGTCACTATATTACAACTAATATTTATCAGAAAAATGTTCCTTTTTTGGAAGAAAATGAAGAAAGTGCTGTTTTTGCACTTATCAATTGAGGGGCTGATTTTGATTCGCTCAAGAAAATAGCAGTTTTAACCTAGACATTTGCTGTGGGGACTTGGAACTTTAACTTGGGGTGTCGCTAACTCTACGCTTTCTTCTAGGTCACCATTACTCCCAGCTCCATGAGGAAGATATGTACATACTTTCGTAGAAAGACTCAAGATGACTTCTGCAGTCCTGAACACTCAACTGAATTATAGATGCTAATCTGAAGTTCATTGAACTTGGGTCTACAAAGATTTTTTAAAAAGGCTTTAAAATTCTGGTCTTTAAGAAAATGGTCATCTTTTCATTTTGGAAAAAGTCCTTCTACTCTTTAGCAGACCTAGTCAGGCCCC
With B1 the “stimulation of AT-1 by cells transfected with cDNA clone” value ([5]; CMS5a, CMS8 and CMS13, or H-2D^d-transfected L cells) was “stimulated” and the “stimulation of AT-1 by cells transfected with cDNA clone” value ([5]; H-2L^d-transfected L cells) was “not”.
